Experiment [1] relates to human cervical tumor cell line HeLa (ATCC CCL-2). The experiment can be described thus: SAC-Formation - Nocodazole-Induced Assay. It is filed as cell-based. To be noted: Homo sapiens, HeLa, 24 h, HeLa cells, nocodazole 0.1 μg/ml together with test compound, decrease of mitotic cells (phospho-histone H3 Ser10). The procedure, abridged: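 Loss of phospho-histone H3 Ser10-positive cells, counted against Hoechst-stained nuclei by high-content imaging, marked mitotic breakthrough. Compounds (0.005–20 μM, 0.5% DMSO) were co-dosed with 0.1 μg/ml nocodazole onto HeLa cells for 24 h at 37 °C. Curves were fitted with a four-parameter Hill equation.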

For experiment [2] the test system is unchanged. The experiment can be described thus: SAC-Formation - Paclitaxel-Induced Assay. It is filed as cell-based. Particulars: Homo sapiens, HeLa, 24 h, HeLa cells, paclitaxel 0.05 μM, test range 0.005 μM-20 μM, read-out: IC50 [mol/l] SAC-Formation - Paclitaxel-Induced Assay. In a few lines: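 Read-out is high-content imaging of anti-phospho-H3 Ser10 (mitosis) and Hoechst 33342 (DNA, cell number), with decreased mitotic fraction marking checkpoint breakthrough. Compounds (0.005–20 μM) and 0.05 μM paclitaxel co-added to overnight-plated HeLa for 24 h at 37° C; four-parameter Hill fit.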

Each structure is given as a SMILES string.

As for `Cc1nsc(Nc2ccc(C#N)cn2)c1C(=O)Nc1ccc(OC2CCNCC2)nc1` [Example 28, 5-[(5-Cyanopyridin-2-yl)amino]-3-methyl-N-[6-(piperidin-4-yloxy)pyridin-3-yl]-1,2-thiazole-4-carboxannide], the figures for the IC50 in experiment [1] and in experiment [2] were 11 µM and 20 µM, respectively.

For the compound `Cc1nsc(Nc2ccc(C#N)cn2)c1C(=O)Nc1ccc(OC2CCN(CCF)CC2)nc1` [Example 29, 5-[(5-Cyanopyridin-2-yl)amino]-N-(6-{[1-(2-fluoroethyl)piperidin-4-yl]oxy}pyridin-3-yl)-3-methyl-1,2-thiazole-4-carboxamide], the IC50 in experiment [1] is 16 µM; in experiment [2], 20 µM.

As to `Cc1nsc(Nc2ccc(C#N)cn2)c1C(=O)Nc1ccc(OC2CCN(CC(F)(F)F)CC2)nc1` [Example 30, 5-[(5-Cyanopyridin-2-yl)amino]-3-methyl-N-(6-{[1-(2,2,2-trifluoroethyl)piperidin-4-yl]oxy}pyridin-3-yl)-1,2-thiazole-4-carboxamide], the IC50 in experiment [1] was 0.62 µM; in experiment [2], 0.42 µM.

Turning to `Cc1nsc(Nc2cnc3ccccc3n2)c1C(=O)Nc1ccc(OC2CCCN(C(=O)OC(C)(C)C)C2)nc1` (centres unmarked) [Example 31, tert-Butyl 3-{[5-({[3-methyl-5-(quinoxalin-2-ylamino)-1,2-thiazol-4-yl]carbonyl}-amino)pyridin-2-yl]oxy}piperidine-1-carboxylate], the figures for the IC50 in experiment [1] and in experiment [2] were 0.22 µM and 0.61 µM, respectively.

Regarding `Cc1nsc(Nc2cnc3ccccc3n2)c1C(=O)Nc1ccc(OC2CCCNC2)nc1` (centres unmarked) [Example 32, 3-Methyl-N-[6-(piperidin-3-yloxy)pyridin-3-yl]-5-(quinoxalin-2-ylamino)-1,2-thiazole-4-carboxannide], the IC50 in experiment [1] came to 4 µM; in experiment [2], 11 µM.

For `Cc1nsc(Nc2cnc3ccccc3n2)c1C(=O)Nc1ccc(OC2CCCN(CC(F)F)C2)nc1` (centres unmarked) [Example 33, N-(6-{[1-(2,2-Difluoroethyl)piperidin-3-yl]oxy}pyridin-3-yl)-3-methyl-5-(quinoxalin-2-ylamino)-1,2-thiazole-4-carboxamide], the IC50 amounted to 1.4 µM in experiment [1] and 0.074 µM in experiment [2].

For the compound `Cc1nsc(Nc2cc(C#N)ccn2)c1C(=O)Nc1ccc(OC2CCCN(C(=O)OC(C)(C)C)C2)nc1` (centres unmarked) [Example 34, tert-Butyl 3({5-[({5-[(4-cyanopyridin-2-yl)amino]-3-methyl-1,2-thiazol-4-yl}-carbonyl)amino]pyridin-2-yl}oxy)piperidine-1-carboxylate], the IC50 in experiment [1] amounted to 0.28 µM; in experiment [2], 0.99 µM.

For `Cc1nsc(Nc2cnc(C(F)(F)F)cn2)c1C(=O)Nc1ccc(OCCNCCC(F)(F)F)nc1` [Example 323, 3-methyl-5-{[5-(trifluoromethyl)pyrazin-2-yl]amino}-N-(6-{2-[(3,3,3-trifluoropropyl)amino]ethoxy}pyridin-3-yl)-1,2-thiazole-4-carboxamide], the IC50 in experiment [1] turned out to be 0.03 µM; in experiment [2], 0.8 µM.

Turning to `Cc1nsc(Nc2cnc(C(F)(F)F)cn2)c1C(=O)Nc1ccc(OC2CCN(C(CF)CF)CC2)nc1` [Example 324, N-(6-{[1-(1,3-difluoropropan-2-yl)piperidin-4-yl]oxy}pyridin-3-yl)-3-methyl-5-{[5-(trifluoromethyl)pyrazin-2-yl]amino}-1,2-thiazole-4-carboxamide], the IC50 in experiment [1] was determined as 0.071 µM; in experiment [2], 0.87 µM.

As for `Cc1nsc(Nc2cnc(C(F)(F)F)cn2)c1C(=O)Nc1ccc(OCC2CCCN(CCF)C2)nc1` (centres unmarked) [Example 325, N-(6-{[1-(2-fluoroethyl)piperidin-3-yl]methoxy}pyridin-3-yl)-3-methyl-5-{[5-(trifluoromethyl)pyrazin-2-yl]amino}-1,2-thiazole-4-carboxamide], the figures for the IC50 in experiment [1] and in experiment [2] were 0.11 µM and 0.053 µM, respectively.

Turning to `Cc1nsc(Nc2cnc(C(F)(F)F)cn2)c1C(=O)Nc1ccc(OCC2CCCN(CC(F)(F)F)C2)nc1` (centres unmarked) [Example 326, 3-methyl-N-(6-{[1-(2,2,2-trifluoroethyl)piperidin-3-yl]methoxy}pyridin-3-yl)-5-{[5-(trifluoromethyl)pyrazin-2-yl]amino}-1,2-thiazole-4-carboxamide], the IC50 in experiment [1] was found to be 0.0056 µM; in experiment [2], 2.3 µM.

For `Cc1nsc(Nc2cnc(C(F)(F)F)cn2)c1C(=O)Nc1ccc(OCC2CCCN(CC(F)F)C2)nc1` (centres unmarked) [Example 327, N-(6-{[1-(2,2-difluoroethyl)piperidin-3-yl]methoxy}pyridin-3-yl)-3-methyl-5-{[5-(trifluoromethyl)pyrazin-2-yl]amino}-1,2-thiazole-4-carboxamide], the results for the IC50 in experiment [1] and in experiment [2] were 0.0063 µM and 0.057 µM, respectively.

In the case of `Cc1nsc(Nc2cnc(C(F)(F)F)cn2)c1C(=O)Nc1ccc(OCC2CCCN(CCC(F)(F)F)C2)nc1` (centres unmarked) [Example 328, 3-methyl-5-{[5-(trifluoromethyl)pyrazin-2-yl]amino}-N-(6-{[1-(3,3,3-trifluoropropyl)piperidin-3-yl]methoxy}pyridin-3-yl)-1,2-thiazole-4-carboxamide], the IC50 in experiment [1] stood at 0.0018 µM; in experiment [2], 0.037 µM.

Turning to `Cc1nsc(Nc2cnc(C(F)(F)F)cn2)c1C(=O)Nc1ccc(OC2CCCN(CCF)C2)nc1` (centres unmarked) [Example 329, N-(6-{[1-(2-fluoroethyl)piperidin-3-yl]oxy}pyridin-3-yl)-3-methyl-5-{[5-(trifluoromethyl)pyrazin-2-yl]amino}-1,2-thiazole-4-carboxamide], the IC50 amounted to 0.035 µM in experiment [1] and 0.18 µM in experiment [2].

In the case of `Cc1nsc(Nc2cnc(C(F)(F)F)cn2)c1C(=O)Nc1ccc(OC2CCCN(CC(F)F)C2)nc1` (centres unmarked) [Example 330, N-(6-{[1-(2,2-difluoroethyl)piperidin-3-yl]oxy}pyridin-3-yl)-3-methyl-5-{[5-(trifluoromethyl)pyrazin-2-yl]amino}-1,2-thiazole-4-carboxamide], the IC50 in experiment [1] amounted to 0.023 µM; in experiment [2] it was 0.025 µM.

For `Cc1nsc(Nc2cnc(C(F)(F)F)cn2)c1C(=O)Nc1ccc(OC2CCCN(CC(F)(F)F)C2)nc1` (centres unmarked) [Example 331, 3-methyl-N-(6-{[1-(2,2,2-trifluoroethyl)piperidin-3-yl]oxy}pyridin-3-yl)-5-{[5-(trifluoromethyl)pyrazin-2-yl]amino}-1,2-thiazole-4-carboxamide], the IC50 in experiment [1] amounted to 0.0062 µM; in experiment [2], 0.023 µM.

Take `Cc1nsc(Nc2cnc(C(F)(F)F)cn2)c1C(=O)Nc1ccc(OC2CCCN(CCC(F)(F)F)C2)nc1` (centres unmarked) [Example 332, 3-methyl-5-{[5-(trifluoromethyl)pyrazin-2-yl]amino}-N-(6-{[1-(3,3,3-trifluoropropyl)piperidin-3-yl]oxy}pyridin-3-yl)-1,2-thiazole-4-carboxamide]: the IC50 in experiment [1] came out at 0.0071 µM; in experiment [2], 0.025 µM.

Consider `Cc1nsc(Nc2cnc(C(F)(F)F)cn2)c1C(=O)Nc1ccc(F)c(OC[C@H]2CCN(CCC(F)(F)F)C2)c1` [Example 399, N-(4-fluoro-3-{[(3S)-1-(3,3,3-trifluoropropyl)pyrrolidin-3-yl]methoxy}phenyl)-3-methyl-5-{[5-(trifluoromethyl)pyrazin-2-yl]amino}-1,2-thiazole-4-carboxamide], for which the IC50 in experiment [1] worked out at 0.029 µM.

The record behind these values is US20170334899A1, “AMINO-SUBSTITUTED ISOTHIAZOLES” (Bayer Pharma Aktiengesellschaft, priority 2014, published 2017).
